# From paper PMC6207338 (Nature medicine, 2018)
# Residue numbers refer to the chain shown, from its start. Read-outs that look alike come from different tables or passages of the source.
# What was measured:
# glucose production = details: i.v. infusion; cited from earlier work
# [11C]-metformin microPET = assay type: in vivo, mouse; details: acute intravenous [11C]-metformin, WT vs KI mice
# mouse FBP1 Y114F = target: T1, mouse FBP1 Y114F (Mus musculus, UniProt Q9QXD6, Y114F); assay: FBPase coupled assay, mouse FBP1 Y114F; assay type: biochemical; details: untagged Y114F, data not shown
# T1 sequence (Q9QXD6 1-338 Y114F): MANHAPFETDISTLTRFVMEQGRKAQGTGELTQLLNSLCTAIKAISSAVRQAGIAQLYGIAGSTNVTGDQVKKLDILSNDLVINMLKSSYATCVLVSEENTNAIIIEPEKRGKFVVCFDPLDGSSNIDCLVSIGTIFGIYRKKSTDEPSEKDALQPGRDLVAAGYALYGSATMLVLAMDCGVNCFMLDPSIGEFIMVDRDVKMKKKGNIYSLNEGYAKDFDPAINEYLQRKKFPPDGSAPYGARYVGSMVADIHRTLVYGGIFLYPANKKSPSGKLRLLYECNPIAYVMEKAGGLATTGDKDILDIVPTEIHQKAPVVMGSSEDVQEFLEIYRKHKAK
# [1] = tested on: gastrocnemius (GAS) muscle; assay: Skeletal muscle adenine/Z nucleotides after AICAR; assay type: in vivo, mouse; details: following AICAR treatment
# AMPK = AMPK activation in tissue by Western blotting / kinase assay; assay type: in vivo, mouse
# [2] = tested on: FBP1^WT/WT (WT) and FBP1^G27P/G27P (KI) mice; assay: AICAR tolerance in mice; assay type: in vivo, mouse; details: 250 mg.kg^-1 i.p.
# [3] = rats, cited from earlier work
# HFD-fed WT and KI mice = assay: Metformin in high-fat diet; details: 250 mg.kg^-1 p.o., 2 h
# [4] = Metformin assay in plasma and tissues
# mouse FBP1 (WT) = target: T2, mouse FBP1 (WT) (Mus musculus, UniProt Q9QXD6); assay: FBPase coupled assay, recombinant mouse FBP1 WT; assay type: biochemical
# T2 sequence (Q9QXD6 1-338): T1 sequence (Q9QXD6 1-338 Y114F) with F114Y
# mouse liver = assay: Liver adenine/Z nucleotides and metabolites after drug treatment; assay type: in vivo; details: 250 mg.kg^-1 p.o.
# [5] = random blood samples from diabetic subjects; cited from earlier work
# rabbit muscle AMPD1 = assay: AMPD1 assay; assay type: biochemical; details: rabbit muscle AMPD1, up to 10 mM
# isolated hepatocytes = details: lactate and pyruvate as sole carbon sources, 1 mM; cited from earlier work
# [6] = tested on: FBP1^WT/WT (WT) and FBP1^G27P/G27P (KI) mice; assay: Metformin-euglycemic clamp; assay type: in vivo, mouse
# in vivo = details: mouse, plasma, po, 250 mg.kg^-1
# [7] = end of clamp, 1.875 mg.kg^-1.min^-1 i.v.
compound,measurement,setting,value
N#Cc1c(O)c2c(-c3ccc(-c4ccccc4O)cc3)csc2[nH]c1=O [A769662],effect on glucose production,glucose production,no effect on glucose production
CN([11CH3])C(=N)N=C(N)N [[^11C]-metformin],kinetics and total metformin uptake in liver (PET),[11C]-metformin microPET,comparable between WT and KI mice
"O=P(O)(O)OC[C@H]1O[C@@](CO)(OP(=O)(O)O)[C@@H](O)[C@@H]1O [F-2,6-P2, fructose-2,6-bisphosphate]","IC50 for F-2,6-P2",mouse FBP1 Y114F,increased IC50
"NC(=O)c1ncn([C@@H]2O[C@H](CO)[C@@H](O)[C@H]2O)c1N [AICAR, 5-aminoimidazole-4-carboxamide-1-β-D-ribofuranoside]","ZMP concentration in skeletal muscle, fold less compared to liver",[1],> 50 fold
same,"[ZMP]:[ATP] ratio in skeletal muscle, fold less compared to liver",[1],> 150 fold
same,phosphorylation of liver AMPK and ACC,"AMPK; liver, WT and KI mice, AICAR 250 mg.kg^-1 i.p., 60 min",robustly stimulated
same,AMPKα T172 phosphorylation and activity in skeletal muscle,"AMPK; skeletal muscle, both genotypes, AICAR 250 mg.kg^-1 i.p., 60 min",failed to increase
same,blood lactate levels,"[2]; KI mice, t = 60 min",only modestly
same,plasma insulin levels,"[2]; WT and KI mice, t = 60 min",no significant change
same,decrease in blood glucose levels,"[2]; WT mice, fasted 16 h",~ 60%
same,blood lactate levels,"[2]; WT mice, t = 60 min",marked increase
same,plasma glucagon levels,"[2]; WT mice, t = 60 min",increased
"CN(C)C(=N)N=C(N)N [metformin, N,N-dimethylbiguanide]",plasma metformin concentration,"[3]; 50 mg.kg^-1 intravenously, 30 min after administration",~ 74 μM
same,plasma metformin concentration,[3]; 100 mg.kg^-1,345 µM
same,plasma metformin concentration,[3]; 250 mg.kg^-1,1300 µM
same,decrease of blood glucose,HFD-fed WT and KI mice; HFD-fed KI mice,~ 10%
same,reduction of blood glucose levels,HFD-fed WT and KI mice; HFD-fed WT mice,30-40%
same,liver metformin level,"[4]; 250 mg.kg^-1 p.o., 1 h, comparable between genotypes",~ 0.7 μmol.g^-1
same,liver metformin,[4]; [7],~ 0.8 μmol.g^-1
same,plasma metformin,[4]; [7],~ 170 μM
same,phosphorylation of liver AMPK and ACC,"AMPK; mouse, in vivo, po",robust increase
same,direct inhibitory effect on FBP1,"mouse FBP1 (WT); purified mouse FBP1, up to 10 mM",does not have a direct inhibitory effect on FBP1 up to 10 mM
same,decrease in hepatic energy charge,mouse liver; both genotypes,~ 10%
same,increase in hepatic [AMP]:[ATP],mouse liver; both genotypes,~ 2 fold
same,hepatic cAMP,"mouse liver; HFD-fed mice, 2 h",no significant effect
same,"plasma metformin levels, upper end of range",[5],868 µM
same,inhibition of AMP deaminase 1 (AMPD1),rabbit muscle AMPD1,Neither does it appear to inhibit
same,reduction in intracellular ATP concentration,isolated hepatocytes,~ 85%
same,glucose infusion rate (GIR),"[6]; 1.875 mg.kg^-1.min^-1 i.v., WT (and also KI) mice",failed to increase GIR significantly from baseline
same,"suppression of EndoRa, gluconeogenesis and glycogenolysis","[6]; 3.75 mg.kg^-1.min^-1 i.v., KI mice",ablated
same,glucose infusion rate (GIR),"[6]; 3.75 mg.kg^-1.min^-1 i.v., KI mice, 120 min clamp",only a modest increase in GIR
same,suppression of endogenous glucose production (EndoRa),"[6]; 3.75 mg.kg^-1.min^-1 i.v., WT mice",~ 20%
same,glucose infusion rate (GIR),"[6]; 3.75 mg.kg^-1.min^-1 i.v., WT mice, 120 min clamp",substantial increase in GIR
same,increase in glucose disposal rate (Rd),"[6]; 3.75 mg.kg^-1.min^-1 i.v., both WT and KI",40-50%
same,concentration at 1 h,in vivo,125 to 150 µM
"CC(C)Cc1sc(N)nc1-c1ccc(P(=O)(O)O)o1 [MB05032, 2-amino-5-isobutyl-4-[5-phosphono-2-furanyl]thiazole]","fold less sensitive, mouse FBP1 compared to rat FBP1","mouse FBP1 (WT); recombinant, in vitro",~ 2 fold
